In patent US20260297085A1, “1 H-PYRROLO[2,3-B]PYRIDIN-4-YL]-2-OXOPYRROLIDINE-3-CARBONITRILE DERIVATIVES AS TYROSINE KINASE 2 (TYK2) INHIBITORS FOR THE TREATMENT OF INFLAMMATORY DISEASES” (BIOGEN MA INC., priority 2023, published 2026):
Where a name gives a salt, the structure may show the parent alone.

Experiments:
[1] = target: T1, human JAK2 kinase domain (JH1) (Homo sapiens, UniProt O60674); experiment: JH1 biochemical assay for JAK2 (ADP-Glo kinase assay, recombinant JH1 catalytic domain, JAK3-974 peptide, 15 μM ATP)
T1 construct: recombinantly generated catalytic kinase (also known as JH1) domain of human JAK1, JAK2, JAK3 and TYK2
Procedure, shortened: (§1)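 Compounds were titrated in 11 points of 3-fold dilution starting at 10 μM or 1 μM. Enzyme (JAK1 4 nM, JAK2 0.2 nM, JAK3 0.3 nM, TYK2 2 nM) and 50 μM peptide reacted for 100 minutes, followed by ADP-to-luminescence detection; IC50 by 4-parameter fit.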

[2] = target: JAK2 kinase activity on STAT5 in TF1 cells (Homo sapiens, UniProt O60674); experiment: pSTAT5 cell assay (MSD; TF1 cells, 30 ng/mL IL-3 stimulation); type: cell-based; details: 30 ng/mL IL-3, 15 minutes
Procedure, shortened: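 IC50 from a 4-parameter logistic fit of normalized pSTAT5 signal, measured by MSD in lysates of TF1 cells. Cells were serum-starved, exposed to compound for 1 h (top concentration 10 μM, four-fold, 10 points), then given IL-3 at 30 ng/mL for 15 min.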

[3] = target: Tyk2 kinase activity on STAT4 in NK92 cells (Homo sapiens, UniProt P29597); experiment: pSTAT4 cell assay (MSD; NK92 cells, 30 ng/mL IL2 stimulation); type: cell-based; details: 30 ng/mL IL2, 15 minutes
Procedure, shortened: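 Compound treatment of starved NK92 cells ran 1 hr before a 15-minute, 30 ng/mL IL2 pulse; lysates went to an MSD anti-STAT4 antibody assay, with curves fitted by 4-parameter logistic model.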

[4] = target: T2, human TYK2 kinase domain (JH1) (Homo sapiens, UniProt P29597); experiment: JH1 biochemical assay for TYK2 (ADP-Glo kinase assay, recombinant JH1 catalytic domain, JAK3-974 peptide, 10 μM ATP)
T2 construct: recombinantly generated catalytic kinase (also known as JH1) domain of human JAK1, JAK2, JAK3 and TYK2
T2 sequence (P29597 897-1176 limits assumed): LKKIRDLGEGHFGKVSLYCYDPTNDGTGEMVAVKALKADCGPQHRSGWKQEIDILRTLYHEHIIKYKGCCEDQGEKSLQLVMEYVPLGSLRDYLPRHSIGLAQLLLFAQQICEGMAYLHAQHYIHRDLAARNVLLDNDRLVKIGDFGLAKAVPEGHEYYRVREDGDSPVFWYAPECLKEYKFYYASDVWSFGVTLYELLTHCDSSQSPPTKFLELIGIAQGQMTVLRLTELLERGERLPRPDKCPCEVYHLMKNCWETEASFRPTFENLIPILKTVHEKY
Procedure, shortened: as §1

[5] = target: T3, human JAK1 kinase domain (JH1) (Homo sapiens, UniProt P23458); experiment: JH1 biochemical assay for JAK1 (ADP-Glo kinase assay, recombinant JH1 catalytic domain, JAK3-342 peptide, 35 μM ATP)
T3 construct: recombinantly generated catalytic kinase (also known as JH1) domain of human JAK1, JAK2, JAK3 and TYK2
Procedure, shortened: as §1

[6] = target: T4, human JAK3 kinase domain (JH1) (Homo sapiens, UniProt P52333); experiment: JH1 biochemical assay for JAK3 (ADP-Glo kinase assay, recombinant JH1 catalytic domain, JAK3-974 peptide, 4 μM ATP)
T4 construct: recombinantly generated catalytic kinase (also known as JH1) domain of human JAK1, JAK2, JAK3 and TYK2
Procedure, shortened: as §1

[7] = target: JAK1 kinase activity on STAT3 in TF1 cells (Homo sapiens, UniProt P23458); experiment: pSTAT3 cell assay (MSD; TF1 cells, 30 ng/mL IL-6 stimulation); type: cell-based; details: 30 ng/mL IL-6, 15 minutes
Procedure, shortened: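 IC50 values reflect 4-parameter logistic fits of normalized pSTAT3 signal, measured by MSD in lysed TF1 cells. Cells were serum-starved and treated with compound for 1 h (top concentration 10 μM) before a 15 min IL-6 challenge.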

Chain of JAK1 kinase activity on STAT3 in TF1 cells (P23458 whole entry): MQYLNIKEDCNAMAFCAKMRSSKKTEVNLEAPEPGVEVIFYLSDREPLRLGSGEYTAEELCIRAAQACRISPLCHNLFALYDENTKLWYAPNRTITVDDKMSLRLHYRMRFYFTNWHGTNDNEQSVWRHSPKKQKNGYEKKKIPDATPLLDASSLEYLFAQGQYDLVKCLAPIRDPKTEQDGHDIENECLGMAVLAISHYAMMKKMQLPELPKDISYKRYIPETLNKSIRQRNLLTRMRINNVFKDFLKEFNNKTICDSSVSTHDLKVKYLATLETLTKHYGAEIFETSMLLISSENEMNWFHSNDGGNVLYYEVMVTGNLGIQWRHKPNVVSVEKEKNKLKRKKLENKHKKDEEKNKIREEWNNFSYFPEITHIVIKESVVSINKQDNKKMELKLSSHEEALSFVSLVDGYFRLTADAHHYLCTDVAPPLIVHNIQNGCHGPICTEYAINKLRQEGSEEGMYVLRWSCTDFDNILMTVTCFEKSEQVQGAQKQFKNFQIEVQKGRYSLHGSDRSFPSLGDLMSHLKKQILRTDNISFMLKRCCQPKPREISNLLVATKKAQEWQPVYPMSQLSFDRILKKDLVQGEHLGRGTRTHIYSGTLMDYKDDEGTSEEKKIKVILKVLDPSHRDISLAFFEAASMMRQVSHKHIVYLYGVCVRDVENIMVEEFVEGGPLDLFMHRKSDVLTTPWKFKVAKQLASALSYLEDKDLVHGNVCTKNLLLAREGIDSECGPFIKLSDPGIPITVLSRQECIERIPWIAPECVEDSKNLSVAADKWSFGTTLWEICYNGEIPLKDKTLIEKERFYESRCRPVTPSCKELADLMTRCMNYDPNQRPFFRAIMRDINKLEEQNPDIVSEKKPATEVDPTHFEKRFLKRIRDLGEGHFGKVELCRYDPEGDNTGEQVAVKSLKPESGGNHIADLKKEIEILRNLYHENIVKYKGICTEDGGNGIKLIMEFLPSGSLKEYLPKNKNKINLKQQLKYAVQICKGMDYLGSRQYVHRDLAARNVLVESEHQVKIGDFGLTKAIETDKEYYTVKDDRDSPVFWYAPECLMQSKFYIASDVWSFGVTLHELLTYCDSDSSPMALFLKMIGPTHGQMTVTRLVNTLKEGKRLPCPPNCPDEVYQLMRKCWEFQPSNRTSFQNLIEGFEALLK
T3 sequence (P23458 875-1153 limits assumed): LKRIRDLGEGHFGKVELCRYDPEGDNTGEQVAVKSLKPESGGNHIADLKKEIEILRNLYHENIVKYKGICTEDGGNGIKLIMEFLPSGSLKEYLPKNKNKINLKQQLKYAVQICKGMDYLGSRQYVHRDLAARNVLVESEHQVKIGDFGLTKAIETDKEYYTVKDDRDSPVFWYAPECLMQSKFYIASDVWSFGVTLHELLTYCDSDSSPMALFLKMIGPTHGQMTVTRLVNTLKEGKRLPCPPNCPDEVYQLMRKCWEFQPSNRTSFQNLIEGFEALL
Chain of JAK2 kinase activity on STAT5 in TF1 cells (O60674 whole entry): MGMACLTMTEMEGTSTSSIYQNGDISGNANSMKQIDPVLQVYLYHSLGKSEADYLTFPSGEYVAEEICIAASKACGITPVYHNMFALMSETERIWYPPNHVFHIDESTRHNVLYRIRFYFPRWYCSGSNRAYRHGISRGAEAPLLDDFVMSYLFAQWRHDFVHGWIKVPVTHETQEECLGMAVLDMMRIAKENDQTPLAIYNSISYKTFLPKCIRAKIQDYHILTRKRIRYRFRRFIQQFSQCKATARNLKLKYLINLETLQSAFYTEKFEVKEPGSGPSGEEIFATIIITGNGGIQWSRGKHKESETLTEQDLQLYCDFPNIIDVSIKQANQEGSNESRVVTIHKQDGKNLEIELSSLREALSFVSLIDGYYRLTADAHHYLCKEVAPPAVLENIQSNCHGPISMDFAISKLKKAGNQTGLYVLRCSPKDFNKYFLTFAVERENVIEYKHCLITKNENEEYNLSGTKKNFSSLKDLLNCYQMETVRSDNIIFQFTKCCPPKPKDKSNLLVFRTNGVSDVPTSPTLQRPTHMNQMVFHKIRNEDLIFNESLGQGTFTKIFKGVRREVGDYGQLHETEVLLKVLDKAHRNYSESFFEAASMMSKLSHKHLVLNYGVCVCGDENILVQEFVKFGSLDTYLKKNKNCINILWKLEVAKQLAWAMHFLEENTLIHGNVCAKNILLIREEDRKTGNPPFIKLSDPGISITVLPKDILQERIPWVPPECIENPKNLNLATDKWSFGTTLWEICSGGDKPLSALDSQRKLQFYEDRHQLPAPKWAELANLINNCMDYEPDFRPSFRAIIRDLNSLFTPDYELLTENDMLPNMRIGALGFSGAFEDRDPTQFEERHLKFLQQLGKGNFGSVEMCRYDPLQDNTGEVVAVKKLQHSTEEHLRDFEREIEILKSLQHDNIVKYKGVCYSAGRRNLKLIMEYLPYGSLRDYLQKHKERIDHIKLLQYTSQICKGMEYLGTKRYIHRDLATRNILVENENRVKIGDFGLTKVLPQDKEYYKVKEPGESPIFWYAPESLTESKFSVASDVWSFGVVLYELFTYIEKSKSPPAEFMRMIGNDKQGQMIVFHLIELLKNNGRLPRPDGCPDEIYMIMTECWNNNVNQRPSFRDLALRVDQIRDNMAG
T1 sequence (O60674 849-1124 limits assumed): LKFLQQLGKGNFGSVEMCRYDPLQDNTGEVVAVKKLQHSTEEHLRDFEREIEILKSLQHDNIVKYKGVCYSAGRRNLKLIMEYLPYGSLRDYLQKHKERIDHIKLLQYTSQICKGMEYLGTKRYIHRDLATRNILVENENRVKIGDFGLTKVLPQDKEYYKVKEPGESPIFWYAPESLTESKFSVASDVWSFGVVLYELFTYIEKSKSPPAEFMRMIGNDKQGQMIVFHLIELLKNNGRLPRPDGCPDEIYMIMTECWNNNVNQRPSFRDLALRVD
Chain of Tyk2 kinase activity on STAT4 in NK92 cells (P29597 whole entry): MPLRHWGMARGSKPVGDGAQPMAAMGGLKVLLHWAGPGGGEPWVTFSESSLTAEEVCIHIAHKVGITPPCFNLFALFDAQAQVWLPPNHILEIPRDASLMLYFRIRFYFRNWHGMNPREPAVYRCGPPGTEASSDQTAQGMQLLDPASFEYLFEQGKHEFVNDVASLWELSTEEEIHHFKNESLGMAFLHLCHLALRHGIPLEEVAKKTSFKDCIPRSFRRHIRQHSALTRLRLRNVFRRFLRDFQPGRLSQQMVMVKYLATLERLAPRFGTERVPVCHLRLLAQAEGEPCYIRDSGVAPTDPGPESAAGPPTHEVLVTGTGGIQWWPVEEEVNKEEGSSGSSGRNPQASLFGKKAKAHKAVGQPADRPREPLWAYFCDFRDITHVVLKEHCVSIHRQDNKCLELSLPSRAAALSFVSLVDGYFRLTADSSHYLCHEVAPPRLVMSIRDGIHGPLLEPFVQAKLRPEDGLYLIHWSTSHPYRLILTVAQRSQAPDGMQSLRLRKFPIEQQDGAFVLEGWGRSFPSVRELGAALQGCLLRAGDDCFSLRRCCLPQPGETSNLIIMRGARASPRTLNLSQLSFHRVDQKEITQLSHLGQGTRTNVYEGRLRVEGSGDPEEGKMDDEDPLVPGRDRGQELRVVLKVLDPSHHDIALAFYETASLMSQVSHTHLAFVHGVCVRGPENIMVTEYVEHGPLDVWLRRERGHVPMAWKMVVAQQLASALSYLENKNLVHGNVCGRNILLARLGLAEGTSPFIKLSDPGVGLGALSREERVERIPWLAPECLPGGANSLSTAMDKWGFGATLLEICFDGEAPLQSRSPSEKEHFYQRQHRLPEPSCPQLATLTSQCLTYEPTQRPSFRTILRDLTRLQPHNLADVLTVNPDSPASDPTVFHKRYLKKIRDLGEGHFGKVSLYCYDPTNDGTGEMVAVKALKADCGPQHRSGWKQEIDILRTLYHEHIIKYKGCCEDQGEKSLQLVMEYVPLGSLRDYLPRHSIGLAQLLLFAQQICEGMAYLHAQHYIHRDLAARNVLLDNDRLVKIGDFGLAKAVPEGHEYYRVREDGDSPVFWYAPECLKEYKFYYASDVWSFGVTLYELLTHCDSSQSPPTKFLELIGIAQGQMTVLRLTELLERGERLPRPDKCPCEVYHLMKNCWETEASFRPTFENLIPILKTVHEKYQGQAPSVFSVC
T4 sequence (P52333 822-1111 limits assumed): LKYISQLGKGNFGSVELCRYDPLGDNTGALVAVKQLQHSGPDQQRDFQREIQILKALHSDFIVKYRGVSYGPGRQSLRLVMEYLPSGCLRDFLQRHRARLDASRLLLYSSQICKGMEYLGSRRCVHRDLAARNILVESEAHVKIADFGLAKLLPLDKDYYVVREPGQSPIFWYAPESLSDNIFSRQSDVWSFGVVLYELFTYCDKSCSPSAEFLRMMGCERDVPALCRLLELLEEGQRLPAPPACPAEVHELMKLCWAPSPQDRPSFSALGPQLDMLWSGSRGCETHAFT

IC50 ([1]; JH1 kinase domain, ADP-Glo)	IC50 [2]	IC50 [3]	IC50 ([4]; JH1 kinase domain, ADP-Glo)	IC50 ([5]; JH1 kinase domain, ADP-Glo)	IC50 ([6]; JH1 kinase domain, ADP-Glo)	IC50 [7]	IC50 ([1]; JAK2 JH1, ADP-Glo)	IC50 ([4]; TYK2 JH1, ADP-Glo)	IC50 ([5]; JAK1 JH1, ADP-Glo)	IC50 ([6]; JAK3 JH1, ADP-Glo)	SMILES
100 to 1000 nM	1000 to 5000 nM	20 to 50 nM	< 5 nM	< 100 nM	100 to 1000 nM	100 to 1000 nM					C[C@@H]1CN(c2ccnn3cc(-c4ccc5nccn5c4)cc23)C(=O)[C@]1(C#N)C1CC1 [Example 88, (3R,4S)-3-cyclopropyl-1-(6-(imidazo[1,2-a]pyridin-6-yl)pyrrolo[1,2-b]pyridazin-4-yl)-4-methyl-2-oxopyrrolidine-3-carbonitrile]
100 to 1000 nM	> 10000 nM	> 100 nM	5 to 20 nM	100 to 1000 nM	100 to 1000 nM	1000 to 5000 nM					Cc1cncc(-c2cc3c(N4C[C@@H](C)[C@@](C#N)(C5CC5)C4=O)ccnn3c2)c1 [Example 71, (3R,4S)-3-cyclopropyl-4-methyl-1-(6-(5-methylpyridin-3-yl)pyrrolo[1,2-b]pyridazin-4-yl)-2-oxopyrrolidine-3-carbonitrile]
	100 to 1000 nM	5 to 20 nM				< 100 nM	< 100 nM	< 5 nM	< 100 nM	< 100 nM	C[C@@H]1CN(c2nc(-c3ccc4cnn(C)c4c3)cn3nccc23)C(=O)[C@]1(C#N)C1CC1 [Example 259, (3R,4S)-3-cyclopropyl-4-methyl-1-(6-(1-methyl-1H-indazol-6-yl)pyrazolo[1,5-a]pyrazin-4-yl)-2-oxopyrrolidine-3-carbonitrile trifluoroacetate]
100 to 1000 nM	> 10000 nM	> 100 nM	< 5 nM	100 to 1000 nM	100 to 1000 nM	> 10000 nM					C[C@@H]1CN(c2ccnn3cc(-c4cn5c(n4)CCC5)cc23)C(=O)[C@]1(C#N)C1CC1 [Example 106, (3R,4S)-3-cyclopropyl-1-(6-(6,7-dihydro-5H-pyrrolo[1,2-a]imidazol-2-yl)pyrrolo[1,2-b]pyridazin-4-yl)-4-methyl-2-oxopyrrolidine-3-carbonitrile trifluoroacetate]
100 to 1000 nM	> 10000 nM	> 100 nM	5 to 20 nM	100 to 1000 nM	100 to 1000 nM	5000 to 10000 nM					C[C@@H]1CN(c2ccnn3cc(-c4cccnc4F)cc23)C(=O)[C@]1(C#N)C1CC1 [Example 56, (3R,4S)-3-cyclopropyl-1-(6-(2-fluoropyridin-3-yl)pyrrolo[1,2-b]pyridazin-4-yl)-4-methyl-2-oxopyrrolidine-3-carbonitrile]
< 100 nM	100 to 1000 nM	50 to 100 nM	< 5 nM	< 100 nM	< 100 nM	100 to 1000 nM					C[C@@H]1CN(c2nc(-c3cnn(C4CC4(F)F)c3)cn3nccc23)C(=O)[C@]1(C#N)C1CC1 (stereo partly drawn) [Example 198, (3R,4S)-3-cyclopropyl-1-(6-(1-(2,2-difluorocyclopropyl)-1H-pyrazol-4-yl)pyrazolo[1,5-a]pyrazin-4-yl)-4-methyl-2-oxopyrrolidine-3-carbonitrile]
< 100 nM	1000 to 5000 nM	20 to 50 nM	< 5 nM	< 100 nM	< 100 nM	100 to 1000 nM					CCn1cc(-c2cn3ncc(F)c3c(N3C[C@@H](C)[C@@](C#N)(C4CC4)C3=O)n2)cn1 [Example 188, (3R,4S)-3-cyclopropyl-1-(6-(1-ethyl-1H-pyrazol-4-yl)-3-fluoropyrazolo[1,5-a]pyrazin-4-yl)-4-methyl-2-oxopyrrolidine-3-carbonitrile]
	> 10000 nM	> 100 nM				> 10000 nM	1000 to 5000 nM	5 to 20 nM	100 to 1000 nM	100 to 1000 nM	C[C@@H]1CN(c2cc(-c3cnn(C)c3)cn3nccc23)C(=O)[C@]1(C#N)C1CC1 [Example 271, (3R,4S)-3-cyclopropyl-4-methyl-1-(6-(1-methyl-1H-pyrazol-4-yl)pyrazolo[1,5-a]pyridin-4-yl)-2-oxopyrrolidine-3-carbonitrile]
	5000 to 10000 nM	> 100 nM				1000 to 5000 nM	100 to 1000 nM	5 to 20 nM	100 to 1000 nM	100 to 1000 nM	Cc1cncc(-c2cn3nccc3c(N3C[C@@H](C)[C@@](C#N)(C4CC4)C3=O)n2)c1 [Example 236, (3R,4S)-3-cyclopropyl-4-methyl-1-(6-(5-methylpyridin-3-yl)pyrazolo[1,5-a]pyrazin-4-yl)-2-oxopyrrolidine-3-carbonitrile]
1000 to 5000 nM	> 10000 nM	> 100 nM	5 to 20 nM	100 to 1000 nM	100 to 1000 nM	5000 to 10000 nM					C[C@@H]1CN(c2ccnn3cc(-c4nc5cnccc5s4)cc23)C(=O)[C@]1(C#N)C1CC1 [Example 102, (3R,4S)-3-cyclopropyl-4-methyl-2-oxo-1-(6-(thiazolo[4,5-c]pyridin-2-yl)pyrrolo[1,2-b]pyridazin-4-yl)pyrrolidine-3-carbonitrile trifluoroacetate]
100 to 1000 nM	1000 to 5000 nM	5 to 20 nM	< 5 nM	< 100 nM	100 to 1000 nM	1000 to 5000 nM					C[C@@H]1CN(c2ccnn3cc(-c4cnn(C5CC5(F)F)c4)cc23)C(=O)[C@]1(C#N)C1CC1 (mixture of isomers) [Example 154, (3R,4S)-3-cyclopropyl-1-(6-(1-(2,2-difluorocyclopropyl)-1H-pyrazol-4-yl)pyrrolo[1,2-b]pyridazin-4-yl)-4-methyl-2-oxopyrrolidine-3-carbonitrile]
100 to 1000 nM	5000 to 10000 nM	50 to 100 nM	5 to 20 nM	100 to 1000 nM	100 to 1000 nM	1000 to 5000 nM					CCc1ccc(-c2cc3c(N4C[C@@H](C)[C@@](C#N)(C5CC5)C4=O)ccnn3c2)cn1 [Example 174, (3R,4S)-3-cyclopropyl-1-(6-(6-ethylpyridin-3-yl)pyrrolo[1,2-b]pyridazin-4-yl)-4-methyl-2-oxopyrrolidine-3-carbonitrile trifluoroacetate]
	100 to 1000 nM	20 to 50 nM				100 to 1000 nM	< 100 nM	< 5 nM	< 100 nM	< 100 nM	C[C@@H]1CN(c2ccnn3cc(-c4cnn(C5CC6(COC6)C5)c4)cc23)C(=O)[C@]1(C#N)C1CC1 [Example 319, (3R,4S)-1-(6-(1-(2-oxaspiro[3.3]heptan-6-yl)-1H-pyrazol-4-yl)pyrrolo[1,2-b]pyridazin-4-yl)-3-cyclopropyl-4-methyl-2-oxopyrrolidine-3-carbonitrile]
1000 to 5000 nM	> 10000 nM	> 100 nM	20 to 50 nM	1000 to 5000 nM	100 to 1000 nM	> 10000 nM					Cc1cc(-c2cc3c(N4CC[C@@](C#N)(C5CC5)C4=O)ccnn3c2)on1 [Example 11, (S)-3-cyclopropyl-1-(6-(3-methylisoxazol-5-yl)pyrrolo[1,2-b]pyridazin-4-yl)-2-oxopyrrolidine-3-carbonitrile]
< 100 nM	1000 to 5000 nM	> 100 nM	< 5 nM	< 100 nM	< 100 nM	1000 to 5000 nM					C[C@@H]1CN(c2ccnn3cc(-c4cnn(C5CCCCC5)c4)cc23)C(=O)[C@]1(C#N)C1CC1 [Example 169, (3R,4S)-1-(6-(1-cyclohexyl-1H-pyrazol-4-yl)pyrrolo[1,2-b]pyridazin-4-yl)-3-cyclopropyl-4-methyl-2-oxopyrrolidine-3-carbonitrile]
	1000 to 5000 nM	> 100 nM				1000 to 5000 nM	< 100 nM	< 5 nM	< 100 nM	< 100 nM	C[C@@H]1CN(c2ccnn3cc(-c4cnn([C@H]5C[C@@](F)(C#N)C5)c4)cc23)C(=O)[C@]1(C#N)C1CC1 [Example 326, (3R,4S)-1-(6-(1-((1r,3R)-3-cyano-3-fluorocyclobutyl)-1H-pyrazol-4-yl)pyrrolo[1,2-b]pyridazin-4-yl)-3-cyclopropyl-4-methyl-2-oxopyrrolidine-3-carbonitrile]
